Experimental data published in patent US11407763B2, “Tryptophan hydroxylase inhibitor and pharmaceutical composition including same” (GWANGJU INSTITUTE OF SCIENCE AND TECHNOLOGY, priority 2017, dated 2022).
Where a name gives a salt, the structure may show the parent alone.

What follows are compounds tested on DSS colitis (assay: not given). Conditions: mouse.
Assay type: in vivo, C57BL/6J mice
Method: C57BL/6J (Jackson Lab) male mice weighing 25±2 g at 9 weeks of age were used, and all the mice were fed freely by providing standard experimental feed. The compound of Example 53 and LX1606 were dissolved in 0.25% methylcellulose (MC) solution, which was orally administered to mice at the dose of 100 and 300 mg/kg/time using a 1 mL syringe. The compound of Example 53 and LX1606 were administered for 7 days, starting one day prior to dextran sulfate sodium (DSS) administration. Before and after the administration, the samples of colon tissue were collected from each mouse treated with the compound of Example 53 or the control drug (LX1606) to confirm clinical symptoms. Data are expressed as mean±standard error of mean (SEM), and all statistical analyses were performed using GraphPad Prism (version 5.0, GraphPad Software, La Jolla, Calif.). Differences in mean between groups were statistically analyzed by two-way analysis of variance (ANOVA) and multiple comparison tests to reveal the differences between the experimental groups. […]
Colon permeability was measured to confirm if the compound of the present invention affected the amelioration of inflammatory bowel disorder. […] The importance of the intestinal epithelial layer was measured by the changes in intercellular permeability and intimate junction function observed in inflammatory bowel disease (IBD) and colorectal cancer. […]

Row | SMILES | colon permeability
1 | CCOC(=O)[C@@H](N)CC1CC=C(c2cc(O[C@H](c3ccc(Cl)cc3-n3ccc(C)n3)C(F)(F)F)nc(N)n2)CC1 (stereo partly drawn) [Example 53, ethyl (2S)-2-amino-3-(4-(2-amino-6-((R)-1-(4-chloro-2-(3-methyl-1H-pyrazole-1-yl)phenyl)-2,2,2-trifluoroethoxy)pyrimidine-4-yl)cyclohex-3-ene-1-yl)propionate hippurate] | lower permeability was observed on average

What follows are compounds tested against TPH1 (tryptophan hydroxylase 1) (Homo sapiens (Human), UniProt P17752) (assay: TPH1 inhibitor screening assay kit (BPS Bioscience), fluorescence). Conditions: TPH1 enzyme, 4 hours at 4° C., ex 300 nm / em 360 nm.
Chain of TPH1 (tryptophan hydroxylase 1) (P17752 whole entry): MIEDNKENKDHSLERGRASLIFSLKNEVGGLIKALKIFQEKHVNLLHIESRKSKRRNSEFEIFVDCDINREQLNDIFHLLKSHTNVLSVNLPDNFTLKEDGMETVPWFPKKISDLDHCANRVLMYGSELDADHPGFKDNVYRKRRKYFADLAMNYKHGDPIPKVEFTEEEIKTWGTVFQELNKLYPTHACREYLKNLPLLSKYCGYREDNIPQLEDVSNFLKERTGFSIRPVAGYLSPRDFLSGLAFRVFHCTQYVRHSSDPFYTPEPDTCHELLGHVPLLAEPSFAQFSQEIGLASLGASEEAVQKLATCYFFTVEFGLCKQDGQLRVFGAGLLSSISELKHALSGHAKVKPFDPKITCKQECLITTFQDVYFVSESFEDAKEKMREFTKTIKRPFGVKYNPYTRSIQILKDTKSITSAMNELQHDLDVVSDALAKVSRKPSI
Assay type: biochemical
Method: In order to confirm the inhibitory effect of the compound represented by formula 1 according to the present invention on the tryptophan hydroxylase activity, it was measured using a TPH1 (tryptophan hydroxylase 1) inhibitor screening assay kit (BPS Bioscience, Catalog #72053). The TPH1 inhibitor screening assay kit was used according to the manufacturer's manual.
Particularly, the synthesized compound was dissolved in DMSO, which was added to a 96-well microplate (10 ? /well), to which TPH1 enzyme was added (40 ? /well). Then, TPH1 reaction solution was added to the microplate (50 ? /well) and the microplate was shaded with aluminum foil. The microplate was transferred to 4° C. environment, shaken carefully and incubated for 4 hours. After adding a quench solution to the microplate (10 ? /well), the TPH1 activity was measured by reading the degree of fluorescence color development with a Flexstation3 microplate reader. At this time, the excitation spectrum was 300 nm and the emission spectrum was 360 nm.

Row | IC50 [nM] | SMILES
2 | 194 | Cc1ccn(-c2cc(Cl)ccc2[C@@H](Oc2cc(C3=CCC4(CC3)CNC(C(=O)O)C4)nc(N)n2)C(F)(F)F)n1 (stereo partly drawn) [Example 80, 8-(2-amino-6-((R)-1-(4-chloro-2-(3-methyl-1H-pyrazole-1-yl)phenyl)-2,2,2-trifluoroethoxy)pyrimidine-4-yl)-2-azaspiro[4.5]dec-7-ene-3-carboxylic acid]
3 | 1150 | Nc1nc(O[C@H](c2ccc(Cl)cc2C2=CCOCC2)C(F)(F)F)cc(C2=CCC3(CC2)CNC(C(=O)O)C3)n1 (stereo partly drawn) [Example 83, 8-(2-amino-6-((R)-1-(4-chloro-2-(3,6-dihydro-2H-pyran-4-yl)phenyl)-2,2,2-trifluoroethoxy)pyrimidine-4-yl)-2-azaspiro[4.5]dec-7-ene-3-carboxylic acid hydrochloride]
4 | 307 | Cc1ccn(-c2cc(Cl)ccc2[C@@H](Oc2ncnc3c(C4=CCC5(CC4)CNC(C(=O)O)C5)csc23)C(F)(F)F)n1 (stereo partly drawn) [Example 84, 8-(4-((R)-1-(4-chloro-2-(3-methyl-1H-pyrazole-1-yl)phenyl)-2,2,2-trifluoroethoxy)thieno[3,2-d]pyrimidine-7-yl)-2-azaspiro[4.5]dec-7-ene-3-carboxylic acid hydrochloride]
5 | 209 | Nc1nc(O[C@H](c2ccc(Cl)cc2C2=CCCOC2)C(F)(F)F)cc(C2=CCC3(CC2)CNC(C(=O)O)C3)n1 (stereo partly drawn) [Example 94, 8-(2-amino-6-((R)-1-(4-chloro-2-(5,6-dihydro-2H-pyran-3-yl)phenyl)-2,2,2-trifluoroethoxy)pyrimidine-4-yl)-2-azaspiro[4.5]dec-7-ene-3-carboxylic acid hydrochloride]

The remaining lines, values behind:

Row | SMILES | IC50 [nM]
6 | Nc1nc(O[C@H](c2ccc(Cl)cc2C2=CCC(F)(F)CC2)C(F)(F)F)cc(C2=CCC(C[C@H](N)C(=O)O)CC2)n1 (stereo partly drawn) [Example 75, (2S)-2-amino-3-(4-(2-amino-6-((R)-1-(5-chloro-4′,4′difluoro-2′,3′,4′,5′-tetrahydro-[1,1′-biphenyl]-2-yl)-2,2,2-trifluoroethoxy)pyrimidine-4-yl)cyclohex-3-ene-1-yl)propionic acid hydrochloride] | 443
7 | Nc1nc(O[C@H](c2ccc(Cl)cc2C2=CCOCC2)C(F)(F)F)cc(C2=CCC(C[C@H](N)C(=O)O)CC2)n1 (stereo partly drawn) [Example 85, (2S)-2-amino-3-(4-(2-amino-6-((R)-1-(4-chloro-2-(3,6-dihydro-2H-pyran-4-yl)phenyl)-2,2,2-trifluoroethoxy)pyrimidine-4-yl)cyclohex-3-ene-1-yl)propionic acid] | 940
8 | COc1cccc(-c2ccc([C@@H](Oc3cc(C4=CCC5(CC4)CNC(C(=O)O)C5)nc(N)n3)C(F)(F)F)cc2)c1 (stereo partly drawn) [Example 89, 8-(2-amino-6-((R)-2,2,2-trifluoro-1-(3′-methoxy-[1,1′-biphenyl]-4-yl)ethoxy)pyrimidine-4-yl)-2-azaspiro[4.5]dec-7-ene-3-carboxylic acid] | 409
9 | Cc1ccn(-c2cc(Cl)ccc2[C@@H](Oc2nc(N)nc3c(-c4ccc(C[C@H](N)C(=O)O)cc4)csc23)C(F)(F)F)n1 [Example 91, (S)-2-amino-3-(4-(2-amino-4-((R)-1-(4-chloro-2-(3-methyl-1H-pyrazole-1-yl)phenyl)-2,2,2-trifluoroethoxy)thieno[3,2-d]pyrimidine-7-yl)phenyl)propionic acid hydrochloride] | 208

Same assay, conditions: TPH1 enzyme, 4 hours at 4° C., ex 300 nm / em 360 nm; hydrochloride

Row | IC50 [nM] | SMILES
10 | 185 | Cc1ccn(-c2cc(Cl)ccc2[C@@H](Oc2cc(C3=CCC4(CC3)CNC(C(=O)O)C4)nc(N)n2)C(F)(F)F)n1 (stereo partly drawn) [Example 79, 8-(2-amino-6-((R)-1-(4-chloro-2-(3-methyl-1H-pyrazole-1-yl)phenyl)-2,2,2-trifluoroethoxy)pyrimidine-4-yl)-2-azaspiro[4.5]dec-7-ene-3-carboxylic acid hydrochloride]
11 | 741 | COc1cccc(-c2ccc([C@@H](Oc3cc(C4=CCC5(CC4)CNC(C(=O)O)C5)nc(N)n3)C(F)(F)F)cc2)c1 (stereo partly drawn) [Example 87, 8-(2-amino-6-((R)-2,2,2-trifluoro-1-(3′-methoxy-[1,1′-biphenyl]-4-yl)ethoxy)pyrimidine-4-yl)-2-azaspiro[4.5]dec-7-ene-3-carboxylic acid hydrochloride]

The compounds below were run on DSS colitis (assay: DSS colitis mouse model: colon length and colon looseness). Conditions: 100 mg/kg and 300 mg/kg oral, 7 days, 2.5% DSS.
Assay type: in vivo, C57BL/6J mice
Method: C57BL/6J (Jackson Lab) male mice weighing 25±2 g at 9 weeks of age were used, and all the mice were fed freely by providing standard experimental feed. The compound of Example 53 and LX1606 were dissolved in 0.25% methylcellulose (MC) solution, which was orally administered to mice at the dose of 100 and 300 mg/kg/time using a 1 mL syringe. The compound of Example 53 and LX1606 were administered for 7 days, starting one day prior to dextran sulfate sodium (DSS) administration. Before and after the administration, the samples of colon tissue were collected from each mouse treated with the compound of Example 53 or the control drug (LX1606) to confirm clinical symptoms. Data are expressed as mean±standard error of mean (SEM), and all statistical analyses were performed using GraphPad Prism (version 5.0, GraphPad Software, La Jolla, Calif.). Differences in mean between groups were statistically analyzed by two-way analysis of variance (ANOVA) and multiple comparison tests to reveal the differences between the experimental groups. P<0.05 was considered statistically significant.
Enteritis was induced in mice by freely drinking 2.5% DSS (molecular weight: 36,000-50,000 M.Wt; manufactured by MP Biomedicals, Canada) aqueous solution for 6 days, and the body weight, stiffness of the stool, and the presence or absence of bloody stool were observed daily from the start of the administration. […]

Row | SMILES | colon length compared with vehicle group
12 | CCOC(=O)[C@@H](N)Cc1ccc(-c2cc(O[C@H](c3ccc(Cl)cc3-n3ccc(C)n3)C(F)(F)F)nc(N)n2)cc1 [LX1606, (2S)-2-Amino-3-[4-[2-amino-6-[[(1R)-1-[4-chloro-2-(3-methylpyrazol-1-yl)phenyl]-2,2,2-trifluoroethyl]oxy]pyrimidin-4-yl]phenyl]propionic acid ethyl ester] | not longer than that of the group treated with vehicle
